Assay results: patent US12076354B2, “Antibiotic with spirulina platensis and plant extracts” (KING FAISAL UNIVERSITY, priority 2022, dated 2024)

Experiments:
[1] = system: multidrug resistant strain of Acinetobacter baumannii; experiment: Disk diffusion susceptibility method, MDR Acinetobacter baumannii isolate; assay type: cell-based; settings: isolated MDR strain from patients with Type 2 Diabetes Mellitus; disks with 20 μl antibiotic composition, 10 μg colistin or 15 μg Tigecycline; 2 hours at 4° C., then 37° C.
Experimental: (§1) The antibiotic composition was tested using the disk diffusion susceptibility method previously published by Bauer et al. (Bauer, A. W., et al., “Antibiotic susceptibility testing by a standardized single disk method,” Amer J Clin Pathol 45: pp. 495-496 ([…])). Briefly, a multidrug resistant strain of Acinetobacter baumannii was isolated from patients with Type 2 Diabetes Mellitus in a hospital setting in Saudi Arabia. Whatman No. 1 sterilized-paper disks were saturated with 20 μl of the antibiotic composition. Disks were then dried and placed on the surface of a medium inoculated with either the isolated MDR Acinetobacter baumannii or Acinetobacter baumannii (ATCC17978). A further test was run using either 10 μg colistin or 15 μg Tigecycline as controls. The plates containing the inoculated medium were kept for 2 hours at 4° C. to ensure the diffusion of the bioactive material, and then were incubated at 37° C. Disks containing 30 μl of water were used as a negative control.

[2] = system: Acinetobacter baumannii (ATCC17978); experiment: Disk diffusion susceptibility method, Acinetobacter baumannii ATCC17978; assay type: cell-based; settings: disks with 20 μl antibiotic composition, 10 μg colistin or 15 μg Tigecycline, 2 hours at 4° C., then 37° C.
Experimental: as §1

Compound | zones of inhibition [1] | zones of inhibition [2]
CN(C)c1cc(NC(=O)CNC(C)(C)C)c(O)c2c1C[C@H]1C[C@H]3[C@H](N(C)C)C(O)=C(C(N)=O)C(=O)[C@@]3(O)C(O)=C1C2=O [Tigecycline] | not around the traditional antibiotic controls | not around the traditional antibiotic controls
colistin | not around the traditional antibiotic controls | not around the traditional antibiotic controls
